Results: patent publication US8563714B2, “Bridged spiro [2.4] heptane derivatives as ALX receptor and/or FPRL2 agonists” (Actelion Pharmaceuticals Ltd., priority 2009, dated 2013)

How the values were obtained:
[1] = target: T1, human ALX receptor (Homo sapiens, UniProt P25090); assay: Intracellular calcium measurements (FLIPR), agonistic activity in HEK293-hALXR-Gα16 cells; format: cell-based; settings: Fluo-4 calcium FLIPR, normalized to WKYMVm 10 nM
T1 construct: expressed in transfected cells; host or cells: HEK293 (HEK293-hALXR-Gα16)
T1 sequence (P25090 1-351): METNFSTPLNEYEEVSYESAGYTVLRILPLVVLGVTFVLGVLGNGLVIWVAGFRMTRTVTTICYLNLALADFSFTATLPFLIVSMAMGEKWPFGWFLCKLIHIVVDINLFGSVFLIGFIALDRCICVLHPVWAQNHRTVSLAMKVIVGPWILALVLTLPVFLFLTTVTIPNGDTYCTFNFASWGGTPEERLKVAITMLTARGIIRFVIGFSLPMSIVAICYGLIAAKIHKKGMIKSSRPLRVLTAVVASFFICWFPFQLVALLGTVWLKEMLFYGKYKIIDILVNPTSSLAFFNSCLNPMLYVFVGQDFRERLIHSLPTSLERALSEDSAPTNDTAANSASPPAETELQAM
Description: (§1) The ALX receptor and FPRL2 agonistic activities of the compounds of formula (I) are determined in accordance with the following experimental method.
(§2) Intracellular Calcium Measurements:
Cells expressing recombinant human ALX receptor and the G-protein Gα16 (HEK293-hALXR-Gα16) were grown to 80% confluency in Growing Medium (GM). Cells were detached from culture dishes with a cell dissociation buffer (Invitrogen, 13151-014), and collected by centrifugation at 1,000 rpm at rt for 5 min in Assay Buffer (AB) (equal parts of Hank's BSS (Gibco, 14065-049) and DMEM without Phenol Red (Gibco, 11880-028)). After 60 min incubation at 37° C. under 5% CO2 in AB supplemented with 1 μM Fluo-4 (AM) (Invitrogen, F14202), and 20 mM HEPES (Gibco, 15630-056), the cells were washed and resuspended in AB. They were then seeded onto 384-well FLIPR assay plates (Greiner, 781091) at 50′000 cells in 70 μl per well and sedimented by centrifugation at 1,000 rpm for 1 min. Stock solutions of test compounds were made up at a concentration of 10 mM in DMSO, and serially diluted in AB to concentrations required for activation dose response curves. WKYMVm (Phoenix Peptides) was used as a reference agonist. FLIPR384 or FLIPR Tetra instruments (Molecular Devices) were operated according to the manufacturer's standard instructions, adding 4 μl of test compound dissolved at 10 mM in DMSO and diluted prior to the experiment in assay buffer to obtain the desired final concentration. Changes in fluorescence were monitored before and after the addition of test compounds at lex=488 nm and lem=540 nm. Emission peak values above base level after compounds addition were exported after base line subtraction. Values were normalized to high-level control (WKYMVm compound, 10 nM final concentration) after subtraction of the base line value (AB addition).

[2] = target: T2, human FPRL2 (Homo sapiens, UniProt P25089); assay: Intracellular calcium measurements (FLIPR), agonistic activity in HEK293-hFPRL2-Gα16 cells; format: cell-based; settings: Fluo-4 calcium FLIPR, normalized to GLY14-Humanin 100 nM
T2 construct: expressed in transfected cells; host or cells: HEK293 (HEK293-hFPRL2-Gα16)
T2 sequence (P25089 1-353): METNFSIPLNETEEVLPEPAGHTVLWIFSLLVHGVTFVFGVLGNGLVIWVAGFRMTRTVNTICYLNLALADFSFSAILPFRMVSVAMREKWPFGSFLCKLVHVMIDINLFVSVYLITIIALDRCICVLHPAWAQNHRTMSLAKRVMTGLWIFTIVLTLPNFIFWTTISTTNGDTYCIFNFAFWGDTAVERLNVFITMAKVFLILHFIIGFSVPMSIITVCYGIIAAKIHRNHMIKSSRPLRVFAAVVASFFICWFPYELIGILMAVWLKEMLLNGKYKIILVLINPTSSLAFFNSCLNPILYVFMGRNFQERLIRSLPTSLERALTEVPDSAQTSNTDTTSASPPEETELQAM
Description: as §1, §2
Cells expressing recombinant human FPRL2 and the G-protein Gα16 (HEK293-hFPRL2-Gα16) were grown to 80% confluency in Growing Medium (GM). […] Stock solutions of test compounds were made up at a concentration of 10 mM in DMSO, and serially diluted in AB to concentrations required for activation dose response curves. Gly14-Humanin (Humanin peptide with replacement of Serine by Glycine at position 14, Phoenix Peptides) was used as a reference agonist. FLIPR384 or FLIPR Tetra instruments (Molecular Devices) were operated according to the manufacturer's standard instructions, adding 4 μl of test compound dissolved at 10 mM in DMSO and diluted prior to the experiment in assay buffer to obtain the desired final concentration. Changes in fluorescence were monitored before and after the addition of test compounds at lex=488 nm and lem=540 nm. Emission peak values above base level after compounds addition were exported after base line subtraction. Values were normalized to high-level control (GLY14-Humanin compound, 100 nM final concentration) after subtraction of the base line value (AB addition).

| Compound | EC50 [1] | EC50 [2] |
| --- | --- | --- |
| O=C(Nc1ccc(Br)cc1)C1C(C(=O)NC2CCNC2)C2C=CC1C21CC1 (mixture of isomers) [Example 9, (5R*)—N^5-(4-Bromophenyl)-(6R*)—N^6-(pyrrolidin-3-yl)-(4S*,7R*)-[4,7-ethenylene-spiro[2.4]heptane]-5,6-dicarboxamide] | 0.94 nM | 1510 nM |
| CC(C)(C)OC(=O)N1CCC(NC(=O)C2C(C(=O)Nc3ccc(Br)cc3)C3C=CC2C32CC2)C1 (mixture of isomers) [Example 14, (5R*)—N^5-(4-Bromophenyl)-(6R*)—N^6-(N-tert-butoxycarbonyl-pyrrolidin-3-yl)-(4S*,7R*)-[4,7-ethenylene-spiro[2.4]heptane]-5,6-dicarboxamide] | 1.2 nM | 1690 nM |
| O=C(NCC1CCCN1)C1C(C(=O)Nc2ccc(Br)cc2)C2C=CC1C21CC1 (mixture of isomers) [Example 18, (5R*)—N^5-(4-Bromophenyl)-(6R*)—N^6-(2-pyrrolidinyl-methyl)-(4S*,7R*)-[4,7-ethenylene-spiro[2.4]heptane]-5,6-dicarboxamide] | 2 nM | 551 nM |
| O=C(NCC1CCCO1)C1C(C(=O)Nc2ccc(Br)cc2)C2C=CC1C21CC1 (mixture of isomers) [Example 22, (5R*)—N^5-(4-Bromophenyl)-(6R*)—N^6-(2-tetrahydrofuranyl-methyl)-(4S*,7R*)-[4,7-ethenylene-spiro[2.4]heptane]-5,6-dicarboxamide] | 3.2 nM | 4640 nM |
| CCN(CC)CCCC(C)NC(=O)C1C(C(=O)Nc2ccc(Br)cc2)C2C=CC1C21CC1 (mixture of isomers) [Example 25, (5R*)—N^5-(4-Bromophenyl)-(6R*)—N^6-(5-(N,N-diethyl-amino)-pent-2-yl)-(4S*,7R*)-[4,7-ethenylene-spiro[2.4]heptane]-5,6-dicarboxamide] | 3.9 nM | 365 nM |
| O=C(Nc1ccc(Br)cc1)C1C(C(=O)NC2CCCNC2)C2C=CC1C21CC1 (mixture of isomers) [Example 26, (5R*)—N^5-(4-Bromophenyl)-(6R*)—N^6-(piperidin-3-yl)-(4S*,7R*)-[4,7-ethenylene-spiro[2.4]heptane]-5,6-dicarboxamide] | 4.2 nM | 744 nM |
| CC(CO)NC(=O)C1C(C(=O)Nc2ccc(Br)cc2)C2C=CC1C21CC1 (mixture of isomers) [Example 28, (5R*)—N^5-(4-Bromophenyl)-(6R*)—N^6-(1-hydroxy-prop-2-yl)-(4S*,7R*)-[4,7-ethenylene-spiro[2.4]heptane]-5,6-dicarboxamide] | 4.5 nM | > 25000 nM |
| CN1CCCC1CCNC(=O)C1C(C(=O)Nc2ccc(Br)cc2)C2C=CC1C21CC1 (mixture of isomers) [Example 33, (5R*)—N^5-(4-Bromophenyl)-(6R*)—N^6-(2-(1-methyl-pyrrolidin-2-yl)-ethyl)-(4S*,7R*)-[4,7-ethenylene-spiro[2.4]heptane]-5,6-dicarboxamide] | 5.8 nM | 4100 nM |
| O=C(NCC1COCCO1)C1C(C(=O)Nc2ccc(Br)cc2)C2C=CC1C21CC1 (mixture of isomers) [Example 41, (5R*)—N^5-(4-Bromophenyl)-(6R*)—N^6-([1,4]-dioxan-2-yl-methyl)-(4S*,7R*)-[4,7-ethenylene-spiro[2.4]heptane]-5,6-dicarboxamide] | 9.5 nM | 8510 nM |
| CCN1CCCC1CNC(=O)C1C(C(=O)Nc2ccc(Br)cc2)C2C=CC1C21CC1 (mixture of isomers) [Example 54, (5R*)—N^5-(4-Bromophenyl)-(6R*)—N^6-[(1-ethyl-pyrrolidin-2-yl)-methyl]-(4S*,7R*)-[4,7-ethenylene-spiro[2.4]heptane]-5,6-dicarboxamide] | 16 nM | 2590 nM |
| CC(C)(C)OC(=O)N1CCCC(NC(=O)C2C(C(=O)Nc3ccc(Br)cc3)C3C=CC2C32CC2)C1 (mixture of isomers) [Example 56, (5R*)—N^5-(4-Bromophenyl)-(6R*)—N^6-(N-tert-butoxycarbonyl-piperidin-3-yl)-(4S*,7R*)-[4,7-ethenylene-spiro[2.4]heptane]-5,6-dicarboxamide] | 18 nM | 1750 nM |
| CC(C)CC(CO)NC(=O)C1C(C(=O)Nc2ccc(Br)cc2)C2C=CC1C21CC1 (mixture of isomers) [Example 59, (5R*)—N^5-(4-Bromophenyl)-(6R*)—N^6-[(2S)-1-hydroxy-4-methyl-pent-2-yl]-(4S*,7R*)-[4,7-ethenylene-spiro[2.4]heptane]-5,6-dicarboxamide] | 21 nM | 8280 nM |
| CC(NC(=O)C1C(C(=O)Nc2ccc(Br)cc2)C2C=CC1C21CC1)C(N)=O (mixture of isomers) [Example 65, (5R*)—N^5-(4-Bromophenyl)-(6R*)—N^6-[(1S)-1-carbamoyl-ethyl]-(4S*,7R*)-[4,7-ethenylene-spiro[2.4]heptane]-5,6-dicarboxamide] | 26 nM | > 25000 nM |
| O=C(NCC(c1ccccc1)N1CCOCC1)C1C(C(=O)Nc2ccc(Br)cc2)C2C=CC1C21CC1 (mixture of isomers) [Example 77, (5R*)—N^5-(4-Bromophenyl)-(6R*)—N^6-(2-phenyl-2-morpholino-ethyl)-(4S*,7R*)-[4,7-ethenylene-spiro[2.4]heptane]-5,6-dicarboxamide] | 80 nM | 2280 nM |
| CC(C)(C)OC(=O)N1CCCC1CNC(=O)C1C(C(=O)Nc2ccc(Br)cc2)C2C=CC1C21CC1 (mixture of isomers) [Example 79, (5R*)—N^5-(4-Bromophenyl)-(6R*)—N^6—(N-tert-butoxycarbonyl-pyrrolidin-2-yl-methyl)-(4S*,7R*)-[4,7-ethenylene-spiro[2.4]heptane]-5,6-dicarboxamide] | 96 nM | 1300 nM |
| NC(=O)C1CCCCC1NC(=O)C1C(C(=O)Nc2ccc(Br)cc2)C2C=CC1C21CC1 (mixture of isomers) [Example 81, (5R*)—N^5-(4-Bromophenyl)-(6R*)—N^6-(2-carbamoyl-cyclohexyl)-(4S*,7R*)-[4,7-ethenylene-spiro[2.4]heptane]-5,6-dicarboxamide] | 100 nM | 8730 nM |
| CC(NC(=O)C1C(C(=O)Nc2ccc(Br)cc2)C2C=CC1C21CC1)C(=O)N1CCCCC1 (mixture of isomers) [Example 82, (5R*)—N^5-(4-Bromophenyl)-(6R*)—N^6-(1-piperidin-1-yl-propan-1-on-2-yl)-(4S*,7R*)-[4,7-ethenylene-spiro[2.4]heptane]-5,6-dicarboxamide] | 118 nM | 6590 nM |
| NC(=O)C(Cc1ccccc1)NC(=O)C1C(C(=O)Nc2ccc(Br)cc2)C2C=CC1C21CC1 (mixture of isomers) [Example 95, (5R*)—N^5-(4-Bromophenyl)-(6R*)—N^6-[(1S)-1-carbamoyl-2-phenyl-ethyl]-(4S*,7R*)-[4,7-ethenylene-spiro[2.4]heptane]-5,6-dicarboxamide] | 223 nM | 1850 nM |
